Data taken from patent US11884683B2, “Tricyclic heterocycle compounds useful as HIV integrase inhibitors” (Merck Sharp & Dohme LLC, priority 2018, dated 2024).
Read-outs that look alike come from different tables or passages of the source.

Tested on: HIV-1 (H9/IIIB strain)
Test: Multiple round HIV-1 infection assay in MT4-GFP cells (wild type cell assay, Viking)
Type: cell-based
Details: 0% NHS condition, MT4-GFP cells infected with HIV-1 H9/IIIB, inhibition of reproductive ratio R0, ~48 h and ~72 h post-infection, read-out: WILD TYPE CELL ASSAY Viking IP (0% NHS)
Method: Assessing Antiviral Potency in a Multiple Round HIV-1 Infection Assay
The antiviral activity of the Examples herein was assessed in an assay that measures the rate of replication of HIV in cell culture, and performed according to the following procedure. HIV-1 replication was monitored using MT4-gag-GFP clone D3 (hereafter designated MT4-GFP), which are MT-4 cells modified to harbor a GFP reporter gene, the expression of which is dependent on the HIV-1 expressed proteins tat and rev. Productive infection of an MT4-GFP cell with HIV-1 results in GFP expression approximately 24 h post-infection. MT4-GFP cells were maintained at 37° C./5% CO2/90% relative humidity in RPMI 1640 supplemented with 10% fetal bovine serum, 100 U/ml penicillin/streptomycin, and 400 μg/ml G418 to maintain the reporter gene. For infections, MT4-GFP cells were placed in the same medium lacking G418 and infected overnight with HIV-1 (H9/IIIB strain) virus at an approximate multiplicity of infection of 0.01 in the same incubation conditions. Cells were then washed and re-suspended in either RPMI 1640 at 2×10^5 cells/mL (0% NHS condition) or 100% normal human serum (NHS) at 2×10^5 cells/mL (100% NHS condition). Compound plates were prepared by dispensing compounds dissolved in DMSO into wells of 384 well poly-D-lysine-coated plates (0.2 μl/well) using an ECHO acoustic dispenser. Each compound was tested in a 10-point serial 3-fold dilution (typical final concentrations: 1050 nM-0.05 nM for 0% NHS condition or […]-2.13 nM for 100% NHS condition). Controls included no inhibitor (DMSO only) and a combination of three antiviral agents (efavirenz, indinavir, an in-house integrase strand transfer inhibitor at final concentrations of […] each). Cells were added ([…]) to compound plates and the infected cells were maintained at 37° C./5% CO2/90% relative humidity.
Infected cells were quantified at two time points, ˜48 h and ˜72 h post-infection, by counting the number of green cells in each well using an Acumen eX3 scanner. The increase in the number of green cells over ˜24 h period gives the reproductive ratio, RO, which is typically 5-15 and has been shown experimentally to be in logarithmic phase (data not shown). Inhibition of R0 is calculated for each well, and IC50s determined by non-linear 4-parameter curve fitting.

[1] = Human immunodeficiency virus 1, IIIB

SMILES	IC50 [nM]	IC50 [1] [nM]
CCN1CN2CC(O)c3c(C(=O)NCc4cccc(Cl)c4F)c(=O)c(O)c(n32)C1=O (centres unmarked) [Compound 51]	2.1	
COCCN1CN2CC(O)c3c(C(=O)NCc4c(F)cc(F)cc4F)c(=O)c(O)c(n32)C1=O (centres unmarked) [Compound 45]		2.5
CCN1CN2CC(O)c3c(C(=O)NCc4ccc(F)c(F)c4F)c(=O)c(O)c(n32)C1=O (centres unmarked) [Compound 59]		2.5
COCCN1CN2CC(O)c3c(C(=O)NCc4c(F)ccc(Cl)c4F)c(=O)c(O)c(n32)C1=O (centres unmarked) [Compound 44]	3.1	
CCN1C(=O)c2c(O)c(=O)c(C(=O)NCc3ccc(F)cc3)c3n2N(CC3O)C1C (centres unmarked) [Compound 87]		4.2
CN1CN2CC(O)c3c(C(=O)NCc4c(F)ccc(Cl)c4F)c(=O)c(O)c(n32)C1=O (centres unmarked) [Compound 8]	1.9	
COCCN1CN2CC(O)c3c(C(=O)NCc4c(F)cc(F)cc4F)c(=O)c(O)c(n32)C1=O (centres unmarked) [Compound 46]	3.7	
CC1N(C)C(=O)c2c(O)c(=O)c(C(=O)NCc3ccc(F)cc3F)c3n2N1CC3O (centres unmarked) [Compound 15]		2.6
CC1N(C)C(=O)c2c(O)c(=O)c(C(=O)NCc3c(F)ccc(F)c3F)c3n2N1CC3O (centres unmarked) [Compound 23]		2.3
CCN1C(=O)c2c(O)c(=O)c(C(=O)NCc3ccc(F)cc3F)c3n2N(CC3O)C1C (single isomer, unassigned) [Compound 89]		1.9
CCC1N(C)C(=O)c2c(O)c(=O)c(C(=O)NCc3c(F)ccc(Cl)c3F)c3n2N1CC3O (single isomer, unassigned) [Compound 25]		2
CC1N(C)C(=O)c2c(O)c(=O)c(C(=O)NCc3c(F)cc(F)cc3F)c3n2N1CC3O (centres unmarked) [Compound 20]	1.7	
CCC1N(C)C(=O)c2c(O)c(=O)c(C(=O)NCc3ccc(F)cc3F)c3n2N1CC3O (centres unmarked) [Compound 31]		4.9
CC1N(C)C(=O)c2c(O)c(=O)c(C(=O)NCc3c(F)ccc(F)c3F)c3n2N1CC3O (centres unmarked) [Compound 24]	1.5	
CCN1C(=O)c2c(O)c(=O)c(C(=O)NCc3ccc(F)cc3F)c3n2N(CC3O)C1C (centres unmarked) [Compound 92]	1.7	
CN1C(=O)c2c(O)c(=O)c(C(=O)NCc3ccc(F)cc3F)c3n2N(CC3O)C12CCOC2 (centres unmarked) [Compound 113]		1.5

SMILES	IC50 [nM]	IC50 [1] [nM]
CCC1N(C)C(=O)c2c(O)c(=O)c(C(=O)NCc3c(F)cc(F)cc3F)c3n2N1CC3O (centres unmarked) [Compound 36]	1.5	
COCCN1CN2CC(O)c3c(C(=O)NCc4ccc(F)c(Cl)c4F)c(=O)c(O)c(n32)C1=O (centres unmarked) [Compound 39]		2.2
CCN1CN2CC(O)c3c(C(=O)NCc4ccc(F)c(Cl)c4F)c(=O)c(O)c(n32)C1=O (centres unmarked) [Compound 50]	4.2	
CCC1N(C)C(=O)c2c(O)c(=O)c(C(=O)NCc3ccc(F)cc3F)c3n2N1CC3O (centres unmarked) [Compound 32]	2.5	
CC1N(C)C(=O)c2c(O)c(=O)c(C(=O)NCc3c(F)ccc(F)c3F)c3n2N1CC3O (single isomer, unassigned) [Compound 21]		1.4
CCC1N(C)C(=O)c2c(O)c(=O)c(C(=O)NCc3c(F)ccc(Cl)c3F)c3n2N1CC3O (centres unmarked) [Compound 27]		2.9
CN1C(=O)c2c(O)c(=O)c(C(=O)NCc3ccc(F)cc3F)c3n2N(CC3O)C12CCOC2 (single isomer, unassigned) [Compound 111]		2.1
CN1C(=O)c2c(O)c(=O)c(C(=O)NCc3c(F)ccc(Cl)c3F)c3n2N(CC3O)C12CCOC2 (centres unmarked) [Compound 117]		1.8
CCN1C(=O)c2c(O)c(=O)c(C(=O)NCc3c(F)ccc(F)c3F)c3n2N(CC3O)C1C (centres unmarked) [Compound 84]	2.1	
CN1C(=O)c2c(O)c(=O)c(C(=O)NCc3c(F)ccc(Cl)c3F)c3n2N(CC3O)C12CCOC2 (centres unmarked) [Compound 118]	1.6	
CC1N(C)C(=O)c2c(O)c(=O)c(C(=O)NCc3c(F)cc(F)cc3F)c3n2N1CC3O (single isomer, unassigned) [Compound 17]		1.5
CN1CN2CC(O)c3c(C(=O)NCc4ccc(F)cc4)c(=O)c(O)c(n32)C1=O (centres unmarked) [Compound 6]	3	
CCN1C(=O)c2c(O)c(=O)c(C(=O)NCc3ccc(C(F)F)cc3)c3n2N(CC3O)C1C (centres unmarked) [Compound 76]	88	
CN1CN2CC(O)c3c(C(=O)NCc4ccc(F)cc4)c(=O)c(O)c(n32)C1=O (centres unmarked) [Compound 5]		3.5
CN1C(=O)c2c(O)c(=O)c(C(=O)NCc3ccc(F)cc3F)c3n2N(CC3O)C12CCOC2 (single isomer, unassigned) [Compound 112]	1.7	
CCN1C(=O)c2c(O)c(=O)c(C(=O)NCc3c(F)ccc(Cl)c3F)c3n2N(CC3O)C1C (centres unmarked) [Compound 71]		3.7
